Assay results reported in ChEMBL document CHEMBL3046876, “Effect of Buprofezin on Oviposition of Brown Planthopper, Nilaparvata lugens, at Sub-lethal Dose” (1996).

Key:
Format in all cases: functional
[1] = test system: Nilaparvata lugens; assay: Effect on hatchability in Nilaparvata lugens (brown planthopper) at 0.08 ppm measured after 7 days relative to control
[2] = test system: Nilaparvata lugens; assay: Insecticidal activity against Nilaparvata lugens (brown planthopper) assessed as mortality at 0.4 ppm measured after 7 days relative to control; settings: 168 h
[3] = test system: Nilaparvata lugens; assay: Effect on life span in Nilaparvata lugens (brown planthopper) adult at 0.4 ppm measured after 7 days relative to control
[4] = test system: Nilaparvata lugens; assay: Insecticidal activity against Nilaparvata lugens (brown planthopper) fifth-instar nymphs assessed as mortality at 0.000128 ppm measured after 7 days; settings: 168 h
[5] = test system: Nilaparvata lugens; assay: Insecticidal activity against Nilaparvata lugens (brown planthopper) fifth-instar nymphs assessed as mortality at 0.4 ppm measured after 7 days; settings: 168 h
[6] = test system: Nilaparvata lugens; assay: Effect on oviposition in Nilaparvata lugens (brown planthopper) assessed as eggs laid at 0.4 ppm measured after 7 days relative to control
[7] = test system: Nilaparvata lugens; assay: Insecticidal activity against Nilaparvata lugens (brown planthopper) fifth-instar nymphs assessed as mortality at 0.08 ppm measured after 7 days; settings: 168 h
[8] = test system: Nilaparvata lugens; assay: Insecticidal activity against Nilaparvata lugens (brown planthopper) fifth-instar nymphs assessed as mortality at 50 ppm measured after 7 days; settings: 168 h
[9] = test system: Nilaparvata lugens; assay: Insecticidal activity against Nilaparvata lugens (brown planthopper) fifth-instar nymphs assessed as mortality at 0.0032 ppm measured after 7 days; settings: 168 h
[10] = test system: Nilaparvata lugens; assay: Insecticidal activity against Nilaparvata lugens (brown planthopper) assessed as mortality at 0.016 ppm measured after 7 days relative to control; settings: 168 h
[11] = test system: Nilaparvata lugens; assay: Insecticidal activity against Nilaparvata lugens (brown planthopper) fifth-instar nymphs assessed as mortality at 2 ppm measured after 7 days; settings: 168 h
[12] = test system: Nilaparvata lugens; assay: Insecticidal activity against Nilaparvata lugens (brown planthopper) emerged female adult assessed as mortality at 2 ppm measured after 7 days relative to control; settings: 168 h
[13] = test system: Nilaparvata lugens; assay: Effect on hatchability in Nilaparvata lugens (brown planthopper) at 0.016 ppm measured after 7 days relative to control
[14] = test system: Nilaparvata lugens; assay: Effect on egg maturity in Nilaparvata lugens (brown planthopper) at 0.00064 ppm measured after 7 days relative to control
[15] = test system: Nilaparvata lugens; assay: Effect on oviposition in Nilaparvata lugens (brown planthopper) assessed as eggs laid at 0.016 ppm measured after 7 days relative to control
[16] = test system: Nilaparvata lugens; assay: Effect on oviposition in Nilaparvata lugens (brown planthopper) assessed as eggs laid at 10 ppm measured after 7 days relative to control
[17] = test system: Nilaparvata lugens; assay: Insecticidal activity against Nilaparvata lugens (brown planthopper) assessed as mortality at 0.000128 ppm measured after 7 days relative to control; settings: 168 h
[18] = test system: Nilaparvata lugens; assay: Insecticidal activity against Nilaparvata lugens (brown planthopper) fifth-instar nymphs assessed as mortality at 0.016 ppm measured after 7 days; settings: 168 h
[19] = test system: Nilaparvata lugens; assay: Insecticidal activity against Nilaparvata lugens (brown planthopper) emerged female adult assessed as mortality at 0.08 ppm measured after 7 days relative to control; settings: 168 h
[20] = test system: Nilaparvata lugens; assay: Effect on hatchability in Nilaparvata lugens (brown planthopper) at 2 ppm measured after 7 days relative to control
[21] = test system: Nilaparvata lugens; assay: Effect on oviposition in Nilaparvata lugens (brown planthopper) assessed as eggs laid at 0.000128 ppm measured after 7 days relative to control
[22] = test system: Nilaparvata lugens; assay: Insecticidal activity against Nilaparvata lugens (brown planthopper) emerged female adult assessed as mortality at 0.0000256 ppm measured after 7 days relative to control; settings: 168 h
[23] = test system: Nilaparvata lugens; assay: Effect on development of ovarioles in Nilaparvata lugens (brown planthopper) assessed as number of ovarioles at 0.4 ppm measured after 7 days relative to control
[24] = test system: Nilaparvata lugens; assay: Insecticidal activity against Nilaparvata lugens (brown planthopper) assessed as mortality at 2 ppm measured after 7 days relative to control; settings: 168 h
[25] = test system: Nilaparvata lugens; assay: Insecticidal activity against Nilaparvata lugens (brown planthopper) emerged female adult assessed as mortality at 0.000128 ppm measured after 7 days relative to control; settings: 168 h
[26] = test system: Nilaparvata lugens; assay: Insecticidal activity against Nilaparvata lugens (brown planthopper) emerged female adult assessed as mortality at 10 ppm measured after 7 days relative to control; settings: 168 h
[27] = test system: Nilaparvata lugens; assay: Effect on oviposition in Nilaparvata lugens (brown planthopper) assessed as eggs laid at 0.0032 ppm measured after 7 days relative to control
[28] = test system: Nilaparvata lugens; assay: Effect on development of ovarioles in Nilaparvata lugens (brown planthopper) assessed as number of ovarioles at 0.00064 ppm measured after 7 days relative to control
[29] = test system: Nilaparvata lugens; assay: Effect on oviposition in Nilaparvata lugens (brown planthopper) assessed as eggs laid at 0.0000256 ppm measured after 7 days relative to control
[30] = test system: Nilaparvata lugens; assay: Insecticidal activity against Nilaparvata lugens (brown planthopper) emerged female adult assessed as mortality at 0.0032 ppm measured after 7 days relative to control; settings: 168 h
[31] = test system: Nilaparvata lugens; assay: Effect on development of ovarioles in Nilaparvata lugens (brown planthopper) assessed as number of ovarioles at 0.016 ppm measured after 7 days relative to control
[32] = test system: Nilaparvata lugens; assay: Insecticidal activity against Nilaparvata lugens (brown planthopper) emerged female adult assessed as mortality at 0.016 ppm measured after 7 days relative to control; settings: 168 h
[33] = test system: Nilaparvata lugens; assay: Effect on life span in Nilaparvata lugens (brown planthopper) adult at 0.00064 ppm measured after 7 days relative to control
[34] = test system: Nilaparvata lugens; assay: Effect on oviposition in Nilaparvata lugens (brown planthopper) assessed as eggs laid at 0.00064 ppm measured after 7 days relative to control
[35] = test system: Nilaparvata lugens; assay: Insecticidal activity against Nilaparvata lugens (brown planthopper) assessed as mortality at 0.08 ppm measured after 7 days relative to control; settings: 168 h
[36] = test system: Nilaparvata lugens; assay: Effect on hatchability in Nilaparvata lugens (brown planthopper) at 10 ppm measured after 7 days relative to control
[37] = test system: Nilaparvata lugens; assay: Insecticidal activity against Nilaparvata lugens (brown planthopper) assessed as mortality at 0.00064 ppm measured after 7 days relative to control; settings: 168 h
[38] = test system: Nilaparvata lugens; assay: Effect on life span in Nilaparvata lugens (brown planthopper) adult at 10 ppm measured after 7 days relative to control
[39] = test system: Nilaparvata lugens; assay: Insecticidal activity against Nilaparvata lugens (brown planthopper) fifth-instar nymphs assessed as mortality at 0.0000256 ppm measured after 7 days; settings: 168 h
[40] = test system: Nilaparvata lugens; assay: Insecticidal activity against Nilaparvata lugens (brown planthopper) fifth-instar nymphs assessed as mortality at 0.00064 ppm measured after 7 days; settings: 168 h
[41] = test system: Nilaparvata lugens; assay: Effect on oviposition in Nilaparvata lugens (brown planthopper) assessed as eggs laid at 2 ppm measured after 7 days relative to control
[42] = test system: Nilaparvata lugens; assay: Insecticidal activity against Nilaparvata lugens (brown planthopper) fifth-instar nymphs assessed as mortality at 10 ppm measured after 7 days; settings: 168 h
[43] = test system: Nilaparvata lugens; assay: Insecticidal activity against Nilaparvata lugens (brown planthopper) assessed as mortality at 0.0032 ppm measured after 7 days relative to control; settings: 168 h
[44] = test system: Nilaparvata lugens; assay: Effect on life span in Nilaparvata lugens (brown planthopper) adult at 0.016 ppm measured after 7 days relative to control
[45] = test system: Nilaparvata lugens; assay: Insecticidal activity against Nilaparvata lugens (brown planthopper) assessed as mortality at 50 ppm measured after 7 days relative to control; settings: 168 h
[46] = test system: Nilaparvata lugens; assay: Effect on hatchability in Nilaparvata lugens (brown planthopper) at 0.4 ppm measured after 7 days relative to control
[47] = test system: Nilaparvata lugens; assay: Effect on egg maturity in Nilaparvata lugens (brown planthopper) at 0.4 ppm measured after 7 days relative to control
[48] = test system: Nilaparvata lugens; assay: Insecticidal activity against Nilaparvata lugens (brown planthopper) emerged female adult assessed as mortality at 0.4 ppm measured after 7 days relative to control; settings: 168 h
[49] = test system: Nilaparvata lugens; assay: Effect on oviposition in Nilaparvata lugens (brown planthopper) assessed as eggs laid at 0.08 ppm measured after 7 days relative to control
[50] = test system: Nilaparvata lugens; assay: Insecticidal activity against Nilaparvata lugens (brown planthopper) assessed as mortality at 10 ppm measured after 7 days relative to control; settings: 168 h
[51] = test system: Nilaparvata lugens; assay: Insecticidal activity against Nilaparvata lugens (brown planthopper) emerged female adult assessed as mortality at 0.00064 ppm measured after 7 days relative to control; settings: 168 h
[52] = test system: Nilaparvata lugens; assay: Insecticidal activity against Nilaparvata lugens (brown planthopper) assessed as mortality at 0.0000256 ppm measured after 7 days relative to control; settings: 168 h
[53] = test system: Nilaparvata lugens; assay: Effect on egg maturity in Nilaparvata lugens (brown planthopper) at 0.016 ppm measured after 7 days relative to control

CC1(C)[C@H](C(=O)O[C@H](C#N)c2cccc(Oc3ccccc3)c2)[C@@H]1C=C(Br)Br [DELTAMETHRIN]
Activity [1]: 98% | mortality at 0.4 ppm [2]: 9% | Activity [3]: 125% | mortality at 0.000128 ppm [4]: 0% | mortality at 0.4 ppm [5]: 9% | Activity [6]: 124% | mortality at 0.08 ppm [7]: 2% | mortality at 50 ppm [8]: 100% | mortality at 0.0032 ppm [9]: 0% | mortality at 0.016 ppm [10]: 9% | mortality at 2 ppm [11]: 4% | mortality at 2 ppm [12]: 0% | Activity [13]: 98% | Activity [14]: 110% | Activity [15]: 128% | Activity [16]: 101% | mortality at 0.000128 ppm [17]: 0% | mortality at 0.016 ppm [18]: 0% | mortality at 0.08 ppm [19]: 0% | Activity [20]: 92% | Activity [21]: 105% | mortality at 2.56e-05 ppm [22]: 4% | Activity [23]: 114% | mortality at 2 ppm [24]: 4% | mortality at 0.000128 ppm [25]: 0% | mortality at 10 ppm [26]: 0% | Activity [27]: 136% | Activity [28]: 102% | Activity [29]: 107% | mortality at 0.0032 ppm [30]: 0% | Activity [31]: 133% | mortality at 0.016 ppm [32]: 9% | Activity [33]: 120% | Activity [34]: 116% | mortality at 0.08 ppm [35]: 2% | Activity [36]: 98% | mortality at 0.00064 ppm [37]: 4% | Activity [38]: 112% | mortality at 2.56e-05 ppm [39]: 0% | mortality at 0.00064 ppm [40]: 0% | Activity [41]: 109% | mortality at 10 ppm [42]: 40% | mortality at 0.0032 ppm [43]: 0% | Activity [44]: 102% | mortality at 50 ppm [45]: 100% | Activity [46]: 94% | Activity [47]: 113% | mortality at 0.4 ppm [48]: 0% | Activity [49]: 112% | mortality at 10 ppm [50]: 40% | mortality at 0.00064 ppm [51]: 4% | mortality at 2.56e-05 ppm [52]: 4% | Activity [53]: 131%
